Data from ChEMBL document CHEMBL3880431, “Heme oxygenase inhibitors, screening methods for heme oxygenase inhibitors and methods of use of heme oxygenase inhibitors for antimicrobial therapy” (2013).
Active and inactive are the calls of the source. The rule behind the calls is not given here.

What was measured:
[1] = Solubility of the compound in methanol/ethanol; type: physicochemical
[2] = Lipophilicity, log P of the compound; type: physicochemical; details: octanol/water; read-out: logP
Heme oxygenase = target: T1, Heme oxygenase (Pseudomonas aeruginosa, UniProt O69002); experiment: Binding affinity to Pseudomonas aeruginosa MPAO1 wild type apo heme oxygenase by spectrofluorimetric analysis
T1 sequence (O69002 whole entry): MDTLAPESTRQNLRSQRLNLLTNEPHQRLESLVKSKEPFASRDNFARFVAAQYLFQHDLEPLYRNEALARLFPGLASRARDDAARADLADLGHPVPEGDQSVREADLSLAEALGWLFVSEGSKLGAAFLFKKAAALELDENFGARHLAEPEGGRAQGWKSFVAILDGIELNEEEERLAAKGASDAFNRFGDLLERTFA

[3] = target: T2, Biliverdin-producing heme oxygenase (Neisseria meningitidis, UniProt Q9AH50); experiment: Binding affinity to Neisseria meningitidis wild type apo heme oxygenase expressed in Escherichia coli BL21(DE3) pLysS by spectrofluorimetric analysis
T2 sequence (Q9AH50 whole entry): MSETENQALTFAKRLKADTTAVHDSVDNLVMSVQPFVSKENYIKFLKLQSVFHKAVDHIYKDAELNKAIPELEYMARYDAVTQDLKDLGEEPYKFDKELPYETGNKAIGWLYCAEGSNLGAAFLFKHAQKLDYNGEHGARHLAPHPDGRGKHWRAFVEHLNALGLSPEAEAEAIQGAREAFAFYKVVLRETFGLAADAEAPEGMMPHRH

[4] = Solubility of the compound in methanol; type: physicochemical
[5] = Solubility of the compound in ethanol; type: physicochemical
Pseudomonas aeruginosa [6] = experiment: Antimicrobial activity against Pseudomonas aeruginosa MPAO1 after 10 hrs; type: functional; details: MPAO1, 10 h
[7] = Decrease in heme oxygenase protein expression level in Pseudomonas aeruginosa MPAO1 at 0.5 mM measured every hr for 12 hrs in presence of 40 uM of Fe(3)-pyoverdin by Western blot analysis; type: functional
Pseudomonas aeruginosa [8] = experiment: Growth inhibition of Pseudomonas aeruginosa MPAO1 assessed as induction of slower cell growth at 500 uM measured up to 6 hrs; type: functional
[9] = Decrease in heme oxygenase protein expression level in Pseudomonas aeruginosa MPAO1 at 0.5 mM measured every hr for 12 hrs in presence of 25 uM of hemoglobin by Western blot analysis; type: functional
Pseudomonas aeruginosa [10] = experiment: Growth inhibition of Pseudomonas aeruginosa MPAO1 at >=500 uM after 10 hrs in presence of 40 uM of Fe(3)-pyoverdin; type: functional
Pseudomonas aeruginosa [11] = experiment: Growth inhibition of Pseudomonas aeruginosa MPAO1 at 500 uM measured up to 6 hrs in presence of 25 uM of hemoglobin; type: functional
Pseudomonas aeruginosa [12] = experiment: Growth inhibition of Pseudomonas aeruginosa MPAO1 assessed as cell growth recovery up to 1500 uM after 10 hrs in presence of 40 uM of Fe(3)-pyoverdin relative to control; type: functional; parameters: scale not given: the % may be the effect or the level left
Pseudomonas aeruginosa [13] = experiment: Growth inhibition of Pseudomonas aeruginosa MPAO1 at >250 uM after 10 hrs; type: functional
[14] = Decrease in heme oxygenase protein expression level in Pseudomonas aeruginosa MPAO1 at 0.5 mM measured after 6 hrs in presence of 40 uM of Fe(3)-pyoverdin by Western blot analysis; type: functional
Pseudomonas aeruginosa [15] = experiment: Antimicrobial activity against Pseudomonas aeruginosa MPAO1 infected in Caenorhabditis elegans assessed as prolongation of survival of infected worms; type: functional

Row | logP [2] | solubility [4] | solubility [5] | Compound | other results
1 | 2.71 |  |  | O=[N+]([O-])c1ccc(O)c(/C=N/c2cccc(CO)c2)c1 | solubility [1]: Insoluble
2 | 2.07 | Soluble |  | COc1cc(/C=N/Cc2ccco2)ccc1O | Kd (Heme oxygenase): Active; Kd [3]: Active
3 | 1.07 |  | Soluble | Nc1cc(-c2ccc(F)cc2)nc(N)n1 | Kd (Heme oxygenase): Active; Kd [3]: Active
4 | 1.17 | Soluble |  | CCN(CC)c1ccc(/C=N/n2nnnc2N)c(O)c1 | Kd (Heme oxygenase): Active; Kd [3]: Active
5 | 3.56 | Soluble |  | O=C(Nc1ccc(-c2cn3ccccc3n2)cc1)c1ccccc1[N+](=O)[O-] | MIC50 (Pseudomonas aeruginosa [6]): > 380 µg/mL
6 | 1.6 |  | Soluble | COc1ccc(C(=O)CCC(=O)O)c(C)c1 | Kd (Heme oxygenase): Active; Kd [3]: Active
7 | 1.46 | Insoluble |  | O=C(O)CSc1ncnc2ccccc12 | MIC50 (Pseudomonas aeruginosa [6]): > 1000 µg/mL
8 | 1.59 |  | Soluble | O=C(O)C(=O)Cc1c[nH]c2ccccc12 | Kd (Heme oxygenase): Active; Kd [3]: Active
9 | 3.77 | Soluble |  | CN(C)c1ccc(/C=N/NC(=N)N)cc1 | Activity (Pseudomonas aeruginosa [15]): Active
10 | 1.92 | Soluble |  | CN(CC(=O)O)c1nc2ccc([N+](=O)[O-])cc2s1 | Kd (Heme oxygenase): Active; Kd [3]: Active
11 | -0.72 |  | Insoluble | N#CC(C#N)=CNNC(=O)CNC(=O)c1ccccc1[N+](=O)[O-] | 
12 | 2.13 |  | Insoluble | O=C(O)c1cccc(NCN2C(=O)c3ccc([N+](=O)[O-])cc3C2=O)c1 | 
13 | 0.58 | Soluble | Soluble | O=C(O)CN1C(=O)c2ccccc2C1=O | 
14 | 0.86 |  | Insoluble | O=C(Cc1n[nH]c(=O)[nH]c1=O)N/N=C/c1cccc([N+](=O)[O-])c1 | 
15 | 1.3 |  | Insoluble | COc1cc(CC(=O)O)c([N+](=O)[O-])cc1OC | 
16 | 1.15 |  | Soluble | COc1ccc(-c2nn(CCC#N)c(=O)[nH]2)cc1 | 
17 | -1.11 |  | Insoluble | NC(=O)NC(=O)C[n+]1ccc(C(N)=O)cc1 | 
18 | 4.62 | Insoluble |  | O=[N+]([O-])c1cccc(/C=N/Nc2ccc(S(=O)(=O)O)cc2)c1 | MIC50 (Pseudomonas aeruginosa [6]): > 1000 µg/mL
19 | 0.8 |  | Insoluble | NNC(=O)c1cccc2cc[nH]c12 | 
20 | 3.16 |  | Insoluble | O=C(CNc1ccc2ccccc2c1)N/N=C/c1ccccn1 | 
21 | 3.51 | Soluble |  | CC(=O)Oc1ccc(-c2cccc(C(=O)O)c2)cc1 | MIC50 (Pseudomonas aeruginosa [6]): > 1000 µg/mL

Row | Compound | logP [2] | solubility [4] | solubility [5] | other results
22 | Nc1cnccc1C(=O)O | 0.32 to 3 |  |  | Kd (Heme oxygenase; read-out: Kd): 44.7 µM; Kd ([3]; read-out: Kd): 33.5 µM
23 | O=C(O)Cn1c(=O)c2cc3c(=O)n(CC(=O)O)c(=O)c3cc2c1=O | -0.68 | Insoluble |  | Kd (Heme oxygenase; read-out: Kd): 6.1 µM; Kd ([3]; read-out: Kd): 20.9 µM
24 | C(=N\Nc1nc(-c2cccnc2)cs1)/c1cccnc1 | 4.24 | Insoluble |  | Activity [7]: Active; Kd (Heme oxygenase; read-out: Kd): 20.9 µM; Kd ([3]; read-out: Kd): 15.6 µM; Activity (Pseudomonas aeruginosa [8]): Active; Activity [9]: Active; growth inhibition (GI) (Pseudomonas aeruginosa [10]): Active; growth inhibition (GI) (Pseudomonas aeruginosa [11]): Active; Activity (Pseudomonas aeruginosa [12]): 40%; growth inhibition (GI) (Pseudomonas aeruginosa [13]): Active; Activity [14]: Active
25 | CN(C)c1ccc(/C=N/n2nnnc2N)cc1 | 0.76 |  |  | Kd (Heme oxygenase; read-out: Kd): 15.8 µM; Kd ([3]; read-out: Kd): 14.1 µM; growth inhibition (GI) (Pseudomonas aeruginosa [13]): Active
26 | NC(=O)c1ccc(NC(=O)/C=C\C(=O)O)cc1Cl | 0.79 | Soluble |  | Kd (Heme oxygenase; read-out: Kd): 187 µM; Kd ([3]; read-out: Kd): 239 µM
27 | Cc1ccccc1C(=O)Nc1cc(C(=O)O)cc(C(=O)O)c1 | 2.62 | Insoluble |  | Kd (Heme oxygenase; read-out: Kd): 72.8 µM; Kd ([3]; read-out: Kd): 28.8 µM
28 | O=[N+]([O-])c1cccc(CN2CCNCC2)c1 | 1.18 | Soluble |  | MIC50 (Pseudomonas aeruginosa [6]): > 1000 µg/mL
